Patent publication US12187712B2, “Cardiac sarcomere inhibitors” (Cytokinetics, Inc., priority 2018, dated 2025)

Target: T1, bovine cardiac myofibrils (Bos taurus, UniProt Q9BE39)
T1 construct: full-length cardiac myosin in the context of the native sarcomere, skinned myofibril assays were performed; from tissue; host or cells: bovine cardiac left ventricular tissue, detergent-skinned (Triton X-100) myofibrils
Assay: Skinned myofibril ATPase assay (PK/LDH-coupled), CDMF75
Assay type: biochemical
Settings: inhibition of steady-state ATPase activity of bovine cardiac myofibrils at 75% Ca2+ activation (pCa75)
Procedure: To evaluate the effect of compounds on the ATPase activity of full-length cardiac myosin in the context of the native sarcomere, skinned myofibril assays were performed. Bovine cardiac myofibrils were obtained by homogenizing bovine cardiac left ventricular tissue in the presence of a detergent such as triton X-100. Such treatment removes membranes and a majority of the soluble cytoplasmic proteins but leaves intact the cardiac sarcomeric acto-myosin apparatus. Myofibril preparations retain the ability to hydrolyze ATP in an Ca^2+ regulated manner. ATPase activities of such myofibril preparations in the presence and absence of compounds were assayed at Ca^2+ concentrations activating to a defined fraction of the maximal rate (i.e., 25%, 75%). Small molecule agents were assessed for their ability to inhibit the steady-state ATPase activity of bovine cardiac myofibrils using pyruvate kinase and lactate dehydrogenase (PK/LDH)-coupled enzyme system. This assay regenerates myosin-produced ADP into ATP by oxidizing NADH, producing an absorbance change at 340 nm. Prior to testing small molecule agents, the bovine cardiac myofibrils were assessed for their calcium responsiveness and the calcium concentration that achieves either a 50% (pCa50) or 75% (pCa75) activation of the myofibril system was chosen as the final condition for assessing the inhibitory activity of the small molecule agents. All enzymatic activity was measured in a buffered solution containing 12 mM PIPES (piperazine-N,N′-bis(2-ethanesulfonic acid), 2 mM magnesium chloride at pH 6.8 (PM 12 buffer). Final assay conditions were 1 mg/mL of bovine cardiac myofibrils, 4 U/mL pyruvate kinase, 6 U/mL lactate dehydrogenase, 50 μM ATP, 0.1 mg/mL BSA (bovine serum albumin), 10 ppm antifoam, 1 mM DTT, 0.5 mM NADH, 1.5 mM PEP, 0.6 mM EGTA, and an amount of CaCl2 sufficient to achieve either 50% or 75% activation of the myofibril ATPase activity. Results for compounds tested are provided in Table A. Compounds tested were prepared in accordance with the synthetic procedures described herein.

T1 sequence (Q9BE39 whole entry): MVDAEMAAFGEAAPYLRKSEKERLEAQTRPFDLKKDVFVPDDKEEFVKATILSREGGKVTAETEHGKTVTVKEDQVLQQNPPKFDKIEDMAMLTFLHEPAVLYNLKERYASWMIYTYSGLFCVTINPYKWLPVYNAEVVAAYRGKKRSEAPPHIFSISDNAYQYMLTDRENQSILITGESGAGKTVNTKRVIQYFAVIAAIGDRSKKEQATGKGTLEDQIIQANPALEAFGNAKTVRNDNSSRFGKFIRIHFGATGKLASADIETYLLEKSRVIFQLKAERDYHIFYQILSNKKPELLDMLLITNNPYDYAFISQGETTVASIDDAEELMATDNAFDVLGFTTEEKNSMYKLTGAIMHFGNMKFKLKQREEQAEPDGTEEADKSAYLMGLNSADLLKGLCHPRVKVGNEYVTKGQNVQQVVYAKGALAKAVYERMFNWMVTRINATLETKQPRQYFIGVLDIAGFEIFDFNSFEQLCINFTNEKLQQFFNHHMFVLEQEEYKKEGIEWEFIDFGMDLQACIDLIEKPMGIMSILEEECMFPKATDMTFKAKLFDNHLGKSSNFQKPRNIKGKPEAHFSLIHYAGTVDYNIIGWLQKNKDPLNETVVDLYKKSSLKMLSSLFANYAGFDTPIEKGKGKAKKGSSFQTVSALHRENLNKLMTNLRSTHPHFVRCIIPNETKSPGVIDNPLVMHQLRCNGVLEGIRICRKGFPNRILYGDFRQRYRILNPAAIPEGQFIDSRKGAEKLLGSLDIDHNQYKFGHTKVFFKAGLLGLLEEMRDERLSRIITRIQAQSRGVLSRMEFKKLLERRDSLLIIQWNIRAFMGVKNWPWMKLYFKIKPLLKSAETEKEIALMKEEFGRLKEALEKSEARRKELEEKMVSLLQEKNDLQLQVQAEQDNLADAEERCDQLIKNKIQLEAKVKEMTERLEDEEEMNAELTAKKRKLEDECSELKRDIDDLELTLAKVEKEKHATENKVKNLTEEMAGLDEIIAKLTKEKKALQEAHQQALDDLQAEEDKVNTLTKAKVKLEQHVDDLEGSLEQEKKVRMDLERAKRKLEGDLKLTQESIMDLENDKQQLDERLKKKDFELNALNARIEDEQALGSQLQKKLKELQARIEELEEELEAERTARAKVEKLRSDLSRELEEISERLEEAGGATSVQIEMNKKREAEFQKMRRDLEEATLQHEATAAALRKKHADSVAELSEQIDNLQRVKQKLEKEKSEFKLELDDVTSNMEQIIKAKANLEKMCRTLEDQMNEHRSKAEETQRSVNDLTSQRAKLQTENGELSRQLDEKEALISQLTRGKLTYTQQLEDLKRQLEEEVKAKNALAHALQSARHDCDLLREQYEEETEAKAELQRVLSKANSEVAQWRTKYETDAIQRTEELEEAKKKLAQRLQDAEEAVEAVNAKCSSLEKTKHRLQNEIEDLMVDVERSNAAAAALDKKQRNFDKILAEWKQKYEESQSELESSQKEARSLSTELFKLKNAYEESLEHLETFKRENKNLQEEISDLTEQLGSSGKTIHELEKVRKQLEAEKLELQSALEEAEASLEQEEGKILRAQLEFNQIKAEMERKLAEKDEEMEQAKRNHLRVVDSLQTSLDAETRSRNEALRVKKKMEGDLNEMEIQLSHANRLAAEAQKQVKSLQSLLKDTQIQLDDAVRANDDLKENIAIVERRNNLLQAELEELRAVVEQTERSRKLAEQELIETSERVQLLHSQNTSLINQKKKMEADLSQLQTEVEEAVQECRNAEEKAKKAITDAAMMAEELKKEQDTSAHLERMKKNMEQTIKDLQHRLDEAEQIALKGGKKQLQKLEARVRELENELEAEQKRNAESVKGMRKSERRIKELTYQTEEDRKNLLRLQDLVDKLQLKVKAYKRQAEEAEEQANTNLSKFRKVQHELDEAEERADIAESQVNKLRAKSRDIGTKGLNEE
T1 sequence (P85100 whole entry partner): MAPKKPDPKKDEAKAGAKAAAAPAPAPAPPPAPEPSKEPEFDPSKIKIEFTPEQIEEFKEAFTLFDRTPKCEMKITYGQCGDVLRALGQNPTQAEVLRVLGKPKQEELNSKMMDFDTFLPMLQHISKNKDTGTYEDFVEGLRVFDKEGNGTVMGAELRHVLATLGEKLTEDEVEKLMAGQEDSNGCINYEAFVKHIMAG
T1 sequence (Q3SZE5 whole entry partner): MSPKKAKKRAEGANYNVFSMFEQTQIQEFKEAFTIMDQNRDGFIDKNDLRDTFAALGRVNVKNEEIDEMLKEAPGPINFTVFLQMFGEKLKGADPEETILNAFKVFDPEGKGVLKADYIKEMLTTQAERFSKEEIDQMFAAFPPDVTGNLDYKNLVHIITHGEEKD

Structure (SMILES): CC(C)c1nc(-c2ccc([C@@H](C)Nc3cnccn3)cc2)no1 [Compound 35, (R)-N-(1-(4-(5-isopropyl-1,2,4-oxadiazol-3-yl)phenyl)ethyl)pyrazin-2-amine]
- CDMF75 IC15: 0.7 µM
- IC50: 3 µM

Structure (SMILES): C[C@@H](Nc1cnccn1)c1ccc(-c2noc(C(C)(C)C)n2)cc1 [Compound 36, (R)-N-(1-(4-(5-(tert-butyl)-1,2,4-oxadiazol-3-yl)phenyl)ethyl)pyrazin-2-amine]
- CDMF75 IC15: 7.1 µM
- IC50: 36.5 µM

Structure (SMILES): C[C@@H](Nc1cnccn1)c1ccc(-c2noc(-c3ccccc3)n2)cc1 [Compound 37, (R)-N-(1-(4-(5-phenyl-1,2,4-oxadiazol-3-yl)phenyl)ethyl)pyrazin-2-amine]
- CDMF75 IC15: 1.3 µM
- IC50: 5.6 µM

Structure (SMILES): Cc1cc(-c2nc(-c3ccc([C@@H](C)Nc4cnccn4)cc3)no2)on1 [Compound 38, (R)-N-(1-(4-(5-(3-methylisoxazol-5-yl)-1,2,4-oxadiazol-3-yl)phenyl)ethyl)pyrazin-2-amine]
- CDMF75 IC15: 3.0 µM
- IC50: 19.1 µM

Structure (SMILES): C[C@@H](Nc1cnccn1)c1ccc(-c2noc(-c3ccco3)n2)cc1 [Compound 39, (R)-N-(1-(4-(5-(furan-2-yl)-1,2,4-oxadiazol-3-yl)phenyl)ethyl)pyrazin-2-amine]
- CDMF75 IC15: 0.2 µM
- IC50: 0.9 µM

Structure (SMILES): C[C@@H](Nc1cnccn1)c1ccc(-c2noc(-c3cccs3)n2)cc1 [Compound 40, (R)-N-(1-(4-(5-(thiophen-2-yl)-1,2,4-oxadiazol-3-yl)phenyl)ethyl)pyrazin-2-amine]
- CDMF75 IC15: 0.3 µM
- IC50: 1.1 µM

Structure (SMILES): Cc1nc(-c2ccc(CNc3cnccn3)cc2F)no1 [Compound 41, N-(3-fluoro-4-(5-methyl-1,2,4-oxadiazol-3-yl)benzyl)pyrazin-2-amine]
- CDMF75 IC15: 0.7 µM
- IC50: 3.9 µM

Structure (SMILES): Fc1cc(CNc2cnccn2)ccc1-c1noc(C(F)(F)F)n1 [Compound 42, N-(3-fluoro-4-(5-(trifluoromethyl)-1,2,4-oxadiazol-3-yl)benzyl)pyrazin-2-amine]
- CDMF75 IC15: 0.8 µM
- IC50: 4.8 µM

Structure (SMILES): C[C@@H](Nc1cnccn1)c1ccc(-c2noc(-c3ccsc3)n2)cc1 [Compound 43, (R)-N-(1-(4-(5-(thiophen-3-yl)-1,2,4-oxadiazol-3-yl)phenyl)ethyl)pyrazin-2-amine]
- CDMF75 IC15: 0.4 µM
- IC50: 1.7 µM

Structure (SMILES): Cc1nc(-c2ccc(CNc3ccnc(Cl)c3)cc2)no1 [Compound 44, 2-chloro-N-(4-(5-methyl-1,2,4-oxadiazol-3-yl)benzyl)pyridin-4-amine]
- CDMF75 IC15: 2.2 µM
- IC50: 10.9 µM

Structure (SMILES): Fc1cc(-c2noc(C(F)(F)F)n2)ccc1CNc1cnccn1 [Compound 45, N-(2-fluoro-4-(5-(trifluoromethyl)-1,2,4-oxadiazol-3-yl)benzyl)pyrazin-2-amine]
- CDMF75 IC15: 0.9 µM
- IC50: 4 µM

Structure (SMILES): Cc1nc(-c2ccc(CNc3cnccn3)c(F)c2)no1 [Compound 46, N-(2-fluoro-4-(5-methyl-1,2,4-oxadiazol-3-yl)benzyl)pyrazin-2-amine]
- CDMF75 IC15: 0.4 µM
- IC50: 2.2 µM

Structure (SMILES): Fc1cc(-c2noc(C3CC3)n2)ccc1CNc1cnccn1 [Compound 47, N-(4-(5-cyclopropyl-1,2,4-oxadiazol-3-yl)-2-fluorobenzyl)pyrazin-2-amine]
- CDMF75 IC15: 0.3 µM
- IC50: 1.7 µM

Structure (SMILES): Cc1cnc(-c2ccc(CNc3cnccn3)cc2)s1 [Compound 48, N-[[4-(5-methyl-1,3-thiazol-2-yl)phenyl]methyl]pyrazin-2-amine]
- CDMF75 IC15: 4.0 µM
- IC50: 19 µM

Structure (SMILES): Cc1cnc(-c2ccc(CNc3cnccn3)cc2)o1 [Compound 49, N-[[4-(5-methyl-1,3-oxazol-2-yl)phenyl]methyl]pyrazin-2-amine]
- CDMF75 IC15: 0.3 µM
- IC50: 28.6 µM

Structure (SMILES): Cc1nc(-c2ccc(CNC(=O)c3ccccc3)cc2)no1 [Compound 50, N-(4-(5-methyl-1,2,4-oxadiazol-3-yl)benzyl)benzamide]
- CDMF75 IC15: 3.4 µM
- IC50: 15.1 µM

Structure (SMILES): Cc1onc(-c2ccc(CNc3cnccn3)cc2)c1I [Compound 51, N-(4-(4-iodo-5-methylisoxazol-3-yl)benzyl)pyrazin-2-amine]
- CDMF75 IC15: 0.2 µM
- IC50: 0.9 µM

Structure (SMILES): Cc1cc(-c2ccc(CNc3cnccn3)cc2)on1 [Compound 53, N-(4-(3-methylisoxazol-5-yl)benzyl)pyrazin-2-amine]
- CDMF75 IC15: 2.1 µM
- IC50: 9.4 µM

Structure (SMILES): COC(=O)NCc1ccc(-c2noc(C)n2)cc1 [Compound 54, methyl (4-(5-methyl-1,2,4-oxadiazol-3-yl)benzyl)carbamate]
- CDMF75 IC15: 6.0 µM
- IC50: 25.8 µM

Structure (SMILES): Cc1nc(-c2ccc3c(c2)CCC3Nc2cnccn2)no1 (stereo not shown) [Compound 55, N-[5-(5-methyl-1,2,4-oxadiazol-3-yl)-2,3-dihydro-1H-inden-1-yl]pyrazin-2-amine]
- CDMF75 IC15: 0.4 µM
- IC50: 1.3 µM

Structure (SMILES): Cc1nc(-c2ccc(CNC(=O)Nc3ccccc3)cc2)no1 [Compound 56, 3-[[4-(5-methyl-1,2,4-oxadiazol-3-yl)phenyl]methyl]-1-phenylurea]
- CDMF75 IC15: 1.2 µM
- IC50: 4.7 µM

Structure (SMILES): Cc1nc(-c2ccc(CNC(=O)OCc3ccccc3)cc2)no1 [Compound 57, benzyl (4-(5-methyl-1,2,4-oxadiazol-3-yl)benzyl)carbamate]
- CDMF75 IC15: 3.1 µM
- IC50: 19.3 µM

Structure (SMILES): Cc1nc(-c2ccc(CNC(=O)Oc3ccccc3)cc2)no1 [Compound 58, phenyl (4-(5-methyl-1,2,4-oxadiazol-3-yl)benzyl)carbamate]
- CDMF75 IC15: 2.3 µM
- IC50: 11.4 µM

Structure (SMILES): Cc1nc(-c2ccc3c(c2)CCCC3Nc2cnccn2)no1 (stereo not shown) [Compound 59, N-(6-(5-methyl-1,2,4-oxadiazol-3-yl)-1,2,3,4-tetrahydronaphthalen-1-yl)pyrazin-2-amine]
- CDMF75 IC15: 0.7 µM
- IC50: 2.2 µM

Structure (SMILES): Cc1nc(-c2ccc(CNC(=O)c3ccnc(N)c3)cc2)no1 [Compound 60, 2-amino-N-[[4-(5-methyl-1,2,4-oxadiazol-3-yl)phenyl]methyl]pyridine-4-carboxamide]
- CDMF75 IC15: 7.7 µM
- IC50: 30.8 µM

Structure (SMILES): Cc1cc(-c2ccc(CNc3cccc(=O)[nH]3)cc2)no1 [Compound 61, 6-([[4-(5-methyl-1,2-oxazol-3-yl)phenyl]methyl]amino)-1,2-dihydropyridin-2-one]
- CDMF75 IC15: 2.4 µM
- IC50: 10.2 µM

Structure (SMILES): Cc1cc(-c2ccc(CNc3cc[nH]n3)cc2)no1 [Compound 62, N-(4-(5-methylisoxazol-3-yl)benzyl)-1H-pyrazol-3-amine]
- CDMF75 IC15: 5.0 µM
- IC50: 23 µM

Structure (SMILES): Cc1nc(-c2ccc(CNC(=O)c3ccncc3O)cc2)no1 [Compound 63, 3-hydroxy-N-(4-(5-methyl-1,2,4-oxadiazol-3-yl)benzyl)isonicotinamide]
- IC50: > 39.2 µM

Structure (SMILES): Cc1cc(-c2ccc(CNc3ccn(C)n3)cc2)no1 [Compound 64, 1-methyl-N-(4-(5-methylisoxazol-3-yl)benzyl)-1H-pyrazol-3-amine]
- CDMF75 IC15: 7.7 µM
- IC50: > 39.2 µM

Structure (SMILES): Cc1cc(-c2ccc(CNc3cc(=O)[nH]cn3)cc2)no1 [Compound 65, 6-((4-(5-methylisoxazol-3-yl)benzyl)amino)pyrimidin-4(3H)-one]
- CDMF75 IC15: 7.6 µM
- IC50: > 39.2 µM

Structure (SMILES): COc1cc(NCc2ccc(-c3cc(C)on3)cc2)ncn1 [Compound 66, 6-methoxy-N-(4-(5-methylisoxazol-3-yl)benzyl)pyrimidin-4-amine]
- CDMF75 IC15: 0.3 µM
- IC50: 1.7 µM
